Source: ChEMBL document CHEMBL3044807, “Synthesis and biological evaluation of new ozonides with improved plant growth regulatory activity” (2009)

Test system: Urochloa decumbens
Test: Phytotoxic activity against Urochloa decumbens assessed as weight of aerial parts at 5.0 x 10^-4 mol/l measured 21 days after seed sowing under greenhouse trials (reference value: 22.0 mg)
Type: functional
Details: not given

Point of comparison: C[C@@H]1CC[C@H]2[C@@H](C)C(=O)O[C@@H]3O[C@@]4(C)CC[C@@H]1[C@]32OO4 [ARTEMISININ], Activity 2.9 mg. Against it:
- CC[C@@H]1C(=O)[C@@H](CC)[C@@]23CC(C)CCC2=C(C)[C@H]1O3 (some centres not stated) — higher, 5.4 mg
- CC(=O)[C@@]12C=C[C@H](O1)[C@H]1CCCC[C@H]2C1=O — higher, 7.4 mg

Test system: Cucumis sativus
Test: Phytotoxic activity against Cucumis sativus (cucumber) assessed as aerial part growth inhibition at 5.0 x 10^-4 mol/l measured 15 days after seed sowing under greenhouse trials (reference value: 0.0%)
Type: functional
Details: 360 h

Point of comparison: CC(=O)[C@@]12C=C[C@H](O1)[C@H]1CCCC[C@H]2C1=O, inhibition at 500 µM 57.4%. Against it:
- CC[C@@H]1C(=O)[C@@H](CC)[C@@]23CC(C)CCC2=C(C)[C@H]1O3 (some centres not stated) — lower, 34.6%

Test system: Ipomoea grandifolia
Test: Phytotoxic activity against Ipomoea grandifolia assessed as weight of root at 5.0 x 10^-4 mol/l measured 21 days after seed sowing under greenhouse trials (reference value: 18.4 mg)
Type: functional
Details: not given

Point of comparison: CC[C@@H]1C(=O)[C@@H](CC)[C@@]23CC(C)CCC2=C(C)[C@H]1O3 (some centres not stated), Activity 2.4 mg. Against it:
- CC(=O)[C@@]12C=C[C@H](O1)[C@H]1CCCC[C@H]2C1=O — higher, 8.6 mg
- C[C@@H]1CC[C@H]2[C@@H](C)C(=O)O[C@@H]3O[C@@]4(C)CC[C@@H]1[C@]32OO4 [ARTEMISININ] — lower, 0.7 mg

Test system: Cucumis sativus
Test: Phytotoxic activity against Cucumis sativus (cucumber) assessed as weight of aerial parts at 5.0 x 10^-4 mol/l measured 15 days after seed sowing under greenhouse trials (reference value: 47.0 mg)
Type: functional
Details: not given

Point of comparison: CC(=O)[C@@]12C=C[C@H](O1)[C@H]1CCCC[C@H]2C1=O, Activity 20 mg. Against it:
- CC[C@@H]1C(=O)[C@@H](CC)[C@@]23CC(C)CCC2=C(C)[C@H]1O3 (some centres not stated) — higher, 30.7 mg

Test system: Sorghum bicolor
Test: Phytotoxic activity against Sorghum bicolor seedlings assessed as inhibition of radicle growth at 5x10'-4 mol/l at 28 +/-1 degC after 48 hr by acid-washed sand based radicle elongation assay (reference value: 0.0%)
Type: functional
Details: not given

Point of comparison: CC(=O)[C@@]12C=C[C@H](O1)[C@H]1CCCC[C@H]2C1=O, inhibition at 500 µM 88.5%. Against it:
- CC[C@@H]1C(=O)[C@@H](CC)[C@@]23CC(C)CCC2=C(C)[C@H]1O3 (some centres not stated) — lower, 68%

Test system: Sorghum bicolor
Test: Phytotoxic activity against Sorghum bicolor assessed as weight of aerial parts at 5.0 x 10^-4 mol/l measured 15 days after seed sowing under greenhouse trials (reference value: 19.0 mg)
Type: functional
Details: not given

Point of comparison: CC(=O)[C@@]12C=C[C@H](O1)[C@H]1CCCC[C@H]2C1=O, Activity 17.8 mg. Against it:
- CC[C@@H]1C(=O)[C@@H](CC)[C@@]23CC(C)CCC2=C(C)[C@H]1O3 (some centres not stated) — lower, 13.7 mg

Test system: Ipomoea grandifolia
Test: Phytotoxic activity against Ipomoea grandifolia assessed as root growth inhibition at 5.0 x 10^-4 mol/l measured 21 days after seed sowing under greenhouse trials (reference value: 0.0%)
Type: functional
Details: 504 h

Point of comparison: C[C@@H]1CC[C@H]2[C@@H](C)C(=O)O[C@@H]3O[C@@]4(C)CC[C@@H]1[C@]32OO4 [ARTEMISININ], inhibition at 500 µM 95%. Against it:
- CC[C@@H]1C(=O)[C@@H](CC)[C@@]23CC(C)CCC2=C(C)[C@H]1O3 (some centres not stated) — lower, 85.3%
- CC(=O)[C@@]12C=C[C@H](O1)[C@H]1CCCC[C@H]2C1=O — lower, 46.2%

Test system: Sorghum bicolor
Test: Phytotoxic activity against Sorghum bicolor assessed as weight of roots at 5.0 x 10^-4 mol/l measured 15 days after seed sowing under greenhouse trials (reference value: 14.0 mg)
Type: functional
Details: not given

Point of comparison: CC(=O)[C@@]12C=C[C@H](O1)[C@H]1CCCC[C@H]2C1=O, Activity 10.7 mg. Against it:
- CC[C@@H]1C(=O)[C@@H](CC)[C@@]23CC(C)CCC2=C(C)[C@H]1O3 (some centres not stated) — higher, 12.7 mg

Test system: Urochloa decumbens
Test: Phytotoxic activity against Urochloa decumbens assessed as aerial part growth inhibition at 5.0 x 10^-4 mol/l measured 21 days after seed sowing under greenhouse trials (reference value: 0.0%)
Type: functional
Details: 504 h

Point of comparison: CC(=O)[C@@]12C=C[C@H](O1)[C@H]1CCCC[C@H]2C1=O, inhibition at 500 µM 66.5%. Against it:
- CC[C@@H]1C(=O)[C@@H](CC)[C@@]23CC(C)CCC2=C(C)[C@H]1O3 (some centres not stated) — higher, 75.3%
- C[C@@H]1CC[C@H]2[C@@H](C)C(=O)O[C@@H]3O[C@@]4(C)CC[C@@H]1[C@]32OO4 [ARTEMISININ] — higher, 93.6%

Test system: Ipomoea grandifolia
Test: Phytotoxic activity against Ipomoea grandifolia assessed as aerial part growth inhibition at 5.0 x 10^-4 mol/l measured 21 days after seed sowing under greenhouse trials (reference value: 0.0%)
Type: functional
Details: 504 h

Point of comparison: CC(=O)[C@@]12C=C[C@H](O1)[C@H]1CCCC[C@H]2C1=O, inhibition at 500 µM 39.4%. Against it:
- CC[C@@H]1C(=O)[C@@H](CC)[C@@]23CC(C)CCC2=C(C)[C@H]1O3 (some centres not stated) — higher, 61.8%
- C[C@@H]1CC[C@H]2[C@@H](C)C(=O)O[C@@H]3O[C@@]4(C)CC[C@@H]1[C@]32OO4 [ARTEMISININ] — higher, 93.6%

Test system: Cucumis sativus
Test: Phytotoxic activity against Cucumis sativus (cucumber) seedlings assessed as inhibition of radicle growth at 5x10'-4 mol/l at 28 +/-1 degC after 48 hr by acid-washed sand based radicle elongation assay (reference value: 0.0%)
Type: functional
Details: not given

Point of comparison: CC[C@@H]1C(=O)[C@@H](CC)[C@@]23CC(C)CCC2=C(C)[C@H]1O3 (some centres not stated), inhibition at 500 µM 62.9%. Against it:
- CC(=O)[C@@]12C=C[C@H](O1)[C@H]1CCCC[C@H]2C1=O — higher, 82.1%

Test system: Cucumis sativus
Test: Phytotoxic activity against Cucumis sativus (cucumber) seedlings assessed as germination at 5x10'-4 mol/l at 28 +/-1 degC after 48 hr by acid-washed sand based radicle elongation assay (reference value: 100%)
Type: functional
Details: not given

Point of comparison: CC(=O)[C@@]12C=C[C@H](O1)[C@H]1CCCC[C@H]2C1=O, germination % at 500 µM 86%. Against it:
- CC[C@@H]1C(=O)[C@@H](CC)[C@@]23CC(C)CCC2=C(C)[C@H]1O3 (some centres not stated) — higher, 96%

Test system: Cucumis sativus
Test: Phytotoxic activity against Cucumis sativus (cucumber) seedlings assessed as radicle length at 5x10'-4 mol/l at 28 +/-1 degC after 48 hr by acid-washed sand based radicle elongation assay (reference value: 4.8 cm)
Type: functional
Details: not given

Point of comparison: CC[C@@H]1C(=O)[C@@H](CC)[C@@]23CC(C)CCC2=C(C)[C@H]1O3 (some centres not stated), Activity 1.8 cm. Against it:
- CC(=O)[C@@]12C=C[C@H](O1)[C@H]1CCCC[C@H]2C1=O — lower, 0.9 cm

Test system: Sorghum bicolor
Test: Phytotoxic activity against Sorghum bicolor assessed as root growth inhibition at 5.0 x 10^-4 mol/l measured 15 days after seed sowing under greenhouse trials (reference value: 0.0%)
Type: functional
Details: 360 h

Point of comparison: CC[C@@H]1C(=O)[C@@H](CC)[C@@]23CC(C)CCC2=C(C)[C@H]1O3 (some centres not stated), inhibition at 500 µM 9.3%. Against it:
- CC(=O)[C@@]12C=C[C@H](O1)[C@H]1CCCC[C@H]2C1=O — higher, 23.2%

Test system: Sorghum bicolor
Test: Phytotoxic activity against Sorghum bicolor seedlings assessed as radicle length at 5x10'-4 mol/l at 28 +/-1 degC after 48 hr by acid-washed sand based radicle elongation assay (reference value: 5.1 cm)
Type: functional
Details: not given

Point of comparison: CC(=O)[C@@]12C=C[C@H](O1)[C@H]1CCCC[C@H]2C1=O, Activity 0.6 cm. Against it:
- CC[C@@H]1C(=O)[C@@H](CC)[C@@]23CC(C)CCC2=C(C)[C@H]1O3 (some centres not stated) — higher, 1.7 cm

Test system: Cucumis sativus
Test: Phytotoxic activity against Cucumis sativus (cucumber) assessed as weight of roots at 5.0 x 10^-4 mol/l measured 15 days after seed sowing under greenhouse trials (reference value: 31.0 mg)
Type: functional
Details: not given

Point of comparison: CC(=O)[C@@]12C=C[C@H](O1)[C@H]1CCCC[C@H]2C1=O, Activity 4.9 mg. Against it:
- CC[C@@H]1C(=O)[C@@H](CC)[C@@]23CC(C)CCC2=C(C)[C@H]1O3 (some centres not stated) — higher, 6.3 mg

Test system: Sorghum bicolor
Test: Phytotoxic activity against Sorghum bicolor seedlings assessed as germination at 5x10'-4 mol/l at 28 +/-1 degC after 48 hr by acid-washed sand based radicle elongation assay (reference value: 100%)
Type: functional
Details: not given

Point of comparison: CC[C@@H]1C(=O)[C@@H](CC)[C@@]23CC(C)CCC2=C(C)[C@H]1O3 (some centres not stated), germination % at 500 µM 93%. Against it:
- CC(=O)[C@@]12C=C[C@H](O1)[C@H]1CCCC[C@H]2C1=O — higher, 96%

Test system: Cucumis sativus
Test: Phytotoxic activity against Cucumis sativus (cucumber) assessed as root growth inhibition at 5.0 x 10^-4 mol/l measured 15 days after seed sowing under greenhouse trials (reference value: 0.0%)
Type: functional
Details: 360 h

Point of comparison: CC(=O)[C@@]12C=C[C@H](O1)[C@H]1CCCC[C@H]2C1=O, inhibition at 500 µM 84.1%. Against it:
- CC[C@@H]1C(=O)[C@@H](CC)[C@@]23CC(C)CCC2=C(C)[C@H]1O3 (some centres not stated) — lower, 79.7%

Test system: Sorghum bicolor
Test: Phytotoxic activity against Sorghum bicolor assessed as aerial part growth inhibition at 5.0 x 10^-4 mol/l measured 15 days after seed sowing under greenhouse trials (reference value: 0.0%)
Type: functional
Details: 360 h

Point of comparison: CC(=O)[C@@]12C=C[C@H](O1)[C@H]1CCCC[C@H]2C1=O, inhibition at 500 µM 6%. Against it:
- CC[C@@H]1C(=O)[C@@H](CC)[C@@]23CC(C)CCC2=C(C)[C@H]1O3 (some centres not stated) — higher, 28.1%

Test system: Ipomoea grandifolia
Test: Phytotoxic activity against Ipomoea grandifolia assessed as weight of aerial parts at 5.0 x 10^-4 mol/l measured 21 days after seed sowing under greenhouse trials (reference value: 17.8 mg)
Type: functional
Details: not given

Point of comparison: C[C@@H]1CC[C@H]2[C@@H](C)C(=O)O[C@@H]3O[C@@]4(C)CC[C@@H]1[C@]32OO4 [ARTEMISININ], Activity 1.2 mg. Against it:
- CC[C@@H]1C(=O)[C@@H](CC)[C@@]23CC(C)CCC2=C(C)[C@H]1O3 (some centres not stated) — higher, 6.9 mg
- CC(=O)[C@@]12C=C[C@H](O1)[C@H]1CCCC[C@H]2C1=O — higher, 10.9 mg

Test system: Urochloa decumbens
Test: Phytotoxic activity against Urochloa decumbens assessed as weight of root at 5.0 x 10^-4 mol/l measured 21 days after seed sowing under greenhouse trials (reference value: 21.2 mg)
Type: functional
Details: not given

Point of comparison: CC(=O)[C@@]12C=C[C@H](O1)[C@H]1CCCC[C@H]2C1=O, Activity 4.5 mg. Against it:
- CC[C@@H]1C(=O)[C@@H](CC)[C@@]23CC(C)CCC2=C(C)[C@H]1O3 (some centres not stated) — lower, 3.4 mg
- C[C@@H]1CC[C@H]2[C@@H](C)C(=O)O[C@@H]3O[C@@]4(C)CC[C@@H]1[C@]32OO4 [ARTEMISININ] — lower, 3.1 mg

Test system: Urochloa decumbens
Test: Phytotoxic activity against Urochloa decumbens assessed as root growth inhibition at 5.0 x 10^-4 mol/l measured 21 days after seed sowing under greenhouse trials (reference value: 0.0%)
Type: functional
Details: 504 h

Point of comparison: C[C@@H]1CC[C@H]2[C@@H](C)C(=O)O[C@@H]3O[C@@]4(C)CC[C@@H]1[C@]32OO4 [ARTEMISININ], inhibition at 500 µM 95%. Against it:
- CC[C@@H]1C(=O)[C@@H](CC)[C@@]23CC(C)CCC2=C(C)[C@H]1O3 (some centres not stated) — lower, 85.5%
- CC(=O)[C@@]12C=C[C@H](O1)[C@H]1CCCC[C@H]2C1=O — lower, 78.4%
